≈ marks a conversion by molar mass, not a printed value. Where “and” joins values, the source holds several entries; their conditions need not be identical. Identical values can stand only once. Like-named read-outs stand apart in the source and are kept apart here. Where a SMILES comes first, the peptide text is derived from it. Bridges are numbered along the chain shown (N, C = ends). Roman numbers before positions name the chains, in order. Side-chain parts run from the residue outwards. The star is where a group is joined. Myristoyl = CCCCCCCCCCCCCC(=O)*; Lauroyl = CCCCCCCCCCCC(=O)*; Octanoyl = CCCCCCCC(=O)*
What was measured:
[1] = test system: Enterococcus faecium ATCC 700221
Experimental: (§1) The Acinetobacter baumannii ATCC BAA-1605, Enterococcus faecium ATCC 700221, Escherichia coli ML-35 ATCC 43827, Klebsiella aerogenes ATCC 13048, Klebsiella pneumoniae ATCC 700603, Pseudomonas aeruginosa ATCC 9027, Staphylococcus aureus ATCC 25923, Staphylococcus aureus ATCC 33591, Candida albicans ATCC 10231, Candida glabrata ATCC 15126, strains were acquired from the American Type Culture Collection (ATCC). All the strains were stored at −80 °C in Roti-Store cryo vials and before the tests were transferred into fresh Mueller–Hinton broth (MHB, Biocorp, Warsaw, Poland) for bacteria or RPMI-1640 (Sigma-Aldrich, Steinheim, Germany) for fungi and incubated for 24 h at 37 °C. Then, the cultures were seeded on the Mueller–Hinton agar (BioMaxima, Lublin, Poland) or Sabouraud dextrose agar (SDA, BioMaxima, Lublin, Poland) plates, respectively, and incubated as just mentioned. These agar cultures were used for further microbiological assays. Cell densities for all assays were adjusted spectrophotometrically (Multiskan GO Microplate Spectrophotometer, Thermo Fisher Scientific, Vantaa, Finland) at 600 and 530 nm for bacteria and fungi, respectively.
(§2) The MICs were determined by the broth microdilution method according to the Clinical and Laboratory Standard Institute guidelines. […] The experiments were conducted on 96-well microtiter polystyrene plates (Kartell, Noviglio, Italy). The growth was assessed visually after incubation, and the MIC was assumed as the lowest peptide concentration at which a noticeable growth of microorganisms was inhibited. All experiments were conducted in triplicate.

[2] = test system: Pseudomonas aeruginosa ATCC 9027
Experimental: as §1, §2

[3] = test system: Staphylococcus aureus ATCC 25923
Experimental: as §1, §2

[4] = test system: Acinetobacter baumannii ATCC BAA 1605
Experimental: as §1, §2

[5] = test system: Klebsiella aerogenes ATCC 13048
Experimental: as §1, §2

[6] = test system: Klebsiella pneumoniae ATCC 700603
Experimental: as §1, §2

[7] = test system: human red blood cells (hRBCs); test: Hemolysis assay; assay type: cell-based; settings: 1 h
Experimental: The hemolysis assay was performed by using the method reported previously. Fresh human red blood cells (hRBCs) with anticoagulant (EDTA) were rinsed three times with a PBS by centrifugation at 800× g for 10 min and diluted with PBS. The compounds were serially diluted on a 96-well microtiter polystyrene plate, and hRBCs were added up to a final volume of 100 μL. The compound concentration ranged between 0.5 and 256 μg/mL and the final hRBCs concentration was 4% (v/v). Controls for zero (blank) and 100% hemolysis consisted of hRBCs suspended in PBS and 1% of Triton-X 100 (Carl Roth GmbH, Karlsruhe, Germany), respectively. The plate was incubated for 1 h at 37 °C and then centrifuged (800× g, 10 min, 4 °C). Subsequently, the supernatant was […] to new microtiter plates, and the absorbance at 540 nm was measured (Multiskan GO Microplate Spectrophotometer, Thermo Fisher Scientific, Vantaa, Finland). All experiments were conducted in triplicate. HC50 was calculated using an ic50.tk tool. The protocol of the study was approved by the local Bioethics Committee at the Medical University of Gdańsk (NKBBN/262/2019, approval date: 10 June 2019).

HaCaT cells = assay type: cell-based, human; settings: 24 h
Experimental: Cells were trypsinized, and the medium was renewed 2–3 times per week. The cytotoxicity of compounds was assessed by the determination of cell metabolic activity by colorimetric CellTilter 96® Aqueous One Solution Cell Proliferation Assay (Promega, Madison, WI, USA), according to the manufacturer’s instructions. […] Every compound was medium-soluble in 37 °C; thus, the control cells were cultured with the medium. Serial dilutions of the tested compounds were always prepared prior to use. Cells were incubated with drugs for 24 h, and then, 20 μL of the CellTiter 96®AqueousOne Solution Reagent was added to each well containing cells maintained in 100 μL of culture medium.

[8] = Critical aggregation concentration by surface tension (Du Noüy ring, K100 tensiometer); assay type: physicochemical; settings: for CAC / Surface Tension at CAC: unbuffered aqueous solution, 298 K
Experimental: The identity of the purified peptides was confirmed with electrospray ionization mass spectrometry (ESI-MS) in positive ion mode. Results of MS analyses and net charge are attached in Supplementary Materials (Table S1). Peptides’ hydrophobicity was evaluated by analytical reversed-phase high-performance liquid chromatography (RP-HPLC). The critical aggregation concentrations (CACs) of the lipopeptides were determined in unbuffered aqueous solution at 298 K by measuring the surface tension as a function of lipopeptide concentration. The measurements were carried out by the Du Noüy ring method on a K100 tensiometer. The surface tension data were plotted against the logarithm of lipopeptide concentration. CAC was found as the intersection of two lines being linear regression of data below and above CAC.
The critical aggregation concentration (CAC) values were determined fully automatically using a K100 tensiometer (KRUSS, Hamburg, Germany) equipped with two micro dosimeters by measuring the surface tension vs. lipopeptide concentration. The measurements were performed in unbuffered aqueous solution at 298 K using the Du Noüy ring method. The accuracy of the surface tension measurements was 0.1 mN/m. The critical aggregation concentration (CAC) was defined as the intersection of two lines fitted to the experimental data collected before and after the inflection point.

C. glabrata ATCC 15126 = test system: C. glabrata ATCC 15126
Experimental: as §1
(§3) The MICs were determined by the broth microdilution method according to the Clinical and Laboratory Standard Institute guidelines. For this purpose, initial inoculums of bacteria (5 × 10^5 CFU/mL) in MHB and yeasts (2 × 10^3 CFU/mL) in RPMI-1640 with 2% D-glucose were exposed to the ranging concentration of lipopeptides (0.5–256 μg/mL) and incubated at 37 °C for 18 h and 24 h, respectively. The experiments were conducted on 96-well microtiter polystyrene plates (Kartell, Noviglio, Italy). The growth was assessed visually after incubation, and the MIC was assumed as the lowest peptide concentration at which a noticeable growth of microorganisms was inhibited. All experiments were conducted in triplicate.

C. albicans ATCC 10231 = test system: C. albicans ATCC 10231
Experimental: as §1, §3

| Structure (SMILES) | MIC Enterococcus faecium ATCC 700221 ([1]; ATCC 700221, 24 h) [µg/mL] | MIC Pseudomonas aeruginosa ATCC 9027 ([2]; ATCC 9027, 24 h) [µg/mL] | MIC Staphylococcus aureus ATCC 25923 ([3]; ATCC 25923, 24 h) [µg/mL] | MIC Acinetobacter baumannii ATCC BAA 1605 ([4]; ATCC BAA 1605, 24 h) [µg/mL] | MIC Klebsiella aerogenes ATCC 13048 ([5]; ATCC 13048, 24 h) [µg/mL] | MIC Klebsiella pneumoniae ATCC 700603 ([6]; ATCC 700603, 24 h) [µg/mL] | HC50 ([7]; red cells of human) [µg/mL] | IC50 (HaCaT cells) [µg/mL] | CAC [8] | Surface Tension at CAC [8] [mN/m] | MIC C. glabrata ATCC 15126 (C. glabrata ATCC 15126; ATCC 15126, 24 h) [µg/mL] | MIC C. albicans ATCC 10231 (C. albicans ATCC 10231; ATCC 10231, 24 h) [µg/mL] | other results |
| --- | --- | --- | --- | --- | --- | --- | --- | --- | --- | --- | --- | --- | --- |
| CCCCCCCCCCCC(=O)N[C@@H](CCCNC(=N)N)C(=O)N[C@@H](CCCNC(=N)N)C(=O)NCCCC[C@H](NC(=O)[C@H](CCCNC(=N)N)NC(=O)[C@H](CCCNC(=N)N)NC(=O)CCCCCCCCCCC)C(N)=O [Compound B3] (Lauroyl-Arg-Arg-Lys([Arg-Arg-Lauroyl])-NH2) | 2 (≈ 1.76 µM) | 4 (≈ 3.53 µM) | 4 (≈ 3.53 µM) | 8 (≈ 7.05 µM) | 32 (≈ 28.2 µM) | 64 (≈ 56.4 µM) | 56.29 ± 6.50 | 26.42 ± 4.24 (≈ 23.3 µM) | 0.87 mM and 987.3 μg/mL | 41 | 2 (≈ 1.76 µM) | 2 (≈ 1.76 µM) | – |
| CCCCCCCC(=O)N[C@@H](Cc1ccccc1)C(=O)N[C@@H](CCCNC(=N)N)C(=O)N[C@@H](CCCNC(=N)N)C(=O)N[C@@H](CSSC[C@H](NC(=O)[C@H](CCCNC(=N)N)NC(=O)[C@H](CCCNC(=N)N)NC(=O)[C@H](Cc1ccccc1)NC(=O)CCCCCCC)C(N)=O)C(N)=O [Compound C5] (I: Octanoyl-FRRC-NH2 / II: Octanoyl-FRRC-NH2; disulfide I:4-II:4) | – | – | – | – | – | – | – | – | 2.58 mM and 3632.7 μg/mL | 37 | – | – | MIC Enterococcus faecium ATCC 700221 ([1]; planktonic culture): 2 µg/mL (≈ 1.42 µM); MIC Pseudomonas aeruginosa ATCC 9027 ([2]; planktonic culture): 8 µg/mL (≈ 5.67 µM); MIC Staphylococcus aureus ATCC 25923 ([3]; planktonic culture): 2 µg/mL (≈ 1.42 µM); MIC Acinetobacter baumannii ATCC BAA 1605 ([4]; planktonic culture): 32 µg/mL (≈ 22.7 µM); MIC Klebsiella aerogenes ATCC 13048 ([5]; planktonic culture): 128 µg/mL (≈ 90.8 µM); MIC Klebsiella pneumoniae ATCC 700603 ([6]; planktonic culture): 32 µg/mL (≈ 22.7 µM); HC50 ([7]; hRBCs 4% (v/v), 37 °C): 117.06 ± 4.60 µg/mL; IC50 (HaCaT cells; HaCaT, MTS): 146.63 ± 14.95 µg/mL (≈ 104 µM); MIC C. glabrata ATCC 15126 (C. glabrata ATCC 15126; planktonic culture): 8 µg/mL (≈ 5.67 µM); MIC C. albicans ATCC 10231 (C. albicans ATCC 10231; planktonic culture): 8 µg/mL (≈ 5.67 µM) |
| CCCCCCC(CCCC)C(=O)N[C@@H](CCCNC(=N)N)C(=O)N[C@@H](CCCNC(=N)N)C(=O)N[C@@H](CSSC[C@H](NC(=O)[C@H](CCCNC(=N)N)NC(=O)[C@H](CCCNC(=N)N)NC(=O)C(CCCC)CCCCCC)C(N)=O)C(N)=O (stereo partly shown) [Compound C7] | 2 (≈ 1.63 µM) | 4 (≈ 3.26 µM) | 2 (≈ 1.63 µM) | 32 (≈ 26.1 µM) | 16 (≈ 13 µM) | 32 (≈ 26.1 µM) | >256 | 163.98 ± 13.66 (≈ 134 µM) | 6.21 mM and 7628.1 μg/mL | 35 | 16 (≈ 13 µM) | 16 (≈ 13 µM) | increase in the CAC value by branching of the acyl chains ([8]; C7 compared with C3): ca. 25 fold |
| CCCCCCCCCCCCCC(=O)N[C@@H](CCCNC(=N)N)C(=O)N[C@@H](CCCNC(=N)N)C(=O)NCCCC[C@H](NC(=O)[C@H](CCCNC(=N)N)NC(=O)[C@H](CCCNC(=N)N)NC(=O)CCCCCCCCCCCCC)C(N)=O [Compound B4] (Myristoyl-Arg-Arg-Lys([Arg-Arg-Myristoyl])-NH2) | 8 (≈ 6.72 µM) | 32 (≈ 26.9 µM) | 64 (≈ 53.8 µM) | 64 (≈ 53.8 µM) | 32 (≈ 26.9 µM) | 32 (≈ 26.9 µM) | 44.12 ± 4.70 | 32.39 ± 4.49 (≈ 27.2 µM) | 0.31 mM and 365.7 μg/mL | 40 | 2 (≈ 1.68 µM) | 4 (≈ 3.36 µM) | – |

Reference: PMC8036666, “Biological and Physico-Chemical Characteristics of Arginine-Rich Peptide Gemini Surfactants with Lysine and Cystine Spacers” (International Journal of Molecular Sciences, 2021)
